Experiment [1] concerns HLA-A*2401. Put plainly: Competition based cellular binding assay, HLA-A*2401 (B-cell line VIJF). Details: species or system human. The settings on record: for Peptide Binding Affinity: HLA-A*2401, IC50 category; for HLA binding Affinity (Table 5): HLA type A24.
Experiment [2] concerns HLA-A*2401. The experiment can be described thus: Stability of peptide-HLA complex, binding at 4° C. and 20° C., HLA-A*2401. Further details: species or system human. The settings on record: for Peptide Binding Stability: HLA-A*2401, IC50 at 20° C. vs 4° C.; for HLA binding Stability (Table 5): HLA type A24. As to the method: Stability of other peptide-HLA complexes was preferably determined as follows. […] Peptides of >50% of the initial complexes was lost within 2 hours were considered unstable. […] The rest was designated as unstable peptide binding.
Peptides 8-11 residues in length were selected based on typical anchor residues for HLA-A*0101, A*0301, A*1101 and HLA-A*2401 (Rammensee H G et al). The capacity of peptides to bind was tested in a competition based cellular binding assay as previously described (van der Burg S H et al 1995). FL-labeled reference peptides were synthesized as Cys-derivative (van der Burg S H et al 1995). Fluorescence labeled reference peptides used were: YLEPAC(FL)AK (SEQ ID NO: 87) (HLA-A*0101) and KVFPC(FL)ALINK (SEQ ID NO: 88) (HLA-A*1101) (Sette A et al), KVFPC(FL)ALINK (SEQ ID NO: 89) (HLAA*0301) (van der Burg S H et al 1995) and RYLKC(FL)QQLL (SEQ ID NO: 90) (A*2401) (Dai L C et al). B-cell lines used are: CAA (A*0101), EKR (A*0301), BVR (A*1101), VIJF (A*2401). The relative binding capacity of the peptides is expressed as the peptide concentration to inhibit 50% (1050) of the binding of the reference peptide. […] Peptide stabilization for HLA-A*0201 was performed as previously described (van der Burg S H et al, 1996). Peptides of >50% of the initial complexes was lost within 2 hours were considered unstable. Stability of other peptide-HLA complexes was determined as follows. Peptide binding was performed at 4° C. and 20° C. and 1050 were determined. […] The rest was designated as unstable peptide binding.

For experiment [3], the target named is T1, 20S immuno-proteasomes from mouse B-cell line (RMA) (Mus musculus, UniProt O35955+P28063+P28076).
T1 construct: 20S immuno-proteasomes were purified from a mouse B-cell line (RMA); endogenous in cells; host or cells: RMA cells; 20S proteasome purified from them
The experiment can be described thus: In vitro proteasome mediated digestion of 30-mers, mass spectrometry, immunoproteasome RMA. The settings on record: 30 residue long precursor peptides. The format is biochemical. On the procedure:
(§1) In the context of the invention, “being inefficiently processed by a proteasome” preferably means that within the first hour of digestion by a proteasome less than 1% of total digested peptide is found. The processing by a proteasome is preferably assessed by incubating a purified proteasome, more preferably a human proteasome with a peptide comprising the potential CTL epitope (30 amino acid length approximately) in a proteasome digestion buffer during at least one hour at 37° C. The reaction is subsequently stopped by adding trifluoroacetic acid. Analysis of the digested peptides is performed with electrospray ionization mass spectrometry (see example 1). Even more preferably, the human proteasome is an immunoproteasome from B-LCL JY cells (Kessler J H et al. 2001).
(§2) 20S immuno-proteasomes were purified from a mouse B-cell line (RMA) and a human B-LCL cell line (JY) and 20S household proteasomes were purified from human tumor cell line (HeLa) as described (Kessler J H et al 2001). To assess kinetics, digestions were performed with different incubation periods as indicated. Briefly, peptides containing the (potential) CTL epitopes (30 mers, 20 μg) were incubated with 1 μg of purified proteasome at 37° C. for 1 h, 4 h and 24 h in 300 μl proteasome digestion buffer, trifluoroacetic acid (30 μl) was added to stop the digestion and samples were stored at −20° C. before mass spectrometric analysis. Electrospray ionization mass spectrometry was performed on a hybrid quadrupole time-of-flight mass spectromter, a Q-TOF (Micromass), equipped with an on-line nanoelectrospray interface with an approximate flow rate of […] as described (Kessler J H et al 2001). The peaks in the mass spectrum were searched in the digested precursor peptide using the Biolynx/proteins software (Micromass) supplied with the mass spectrometer. The intensity of the peaks in the mass spectra was used to establish the relative amounts of peptides generated after proteasome digestion. The relative amounts of the peptides are given as a percentage of the total amount of peptide digested by the proteasome at the indicated incubation time. Major cleavage sites are defined as more than >1% of total digested peptide within the first hour.

In experiment [4] the target is T2, 20S immuno-proteasomes from human B-LCL cell line (JY) (Homo sapiens, UniProt P28062+P28065+P40306).
T2 construct: purified from a mouse B-cell line (RMA) and a human B-LCL cell line (JY); endogenous in cells; host or cells: B-LCL JY cells; 20S proteasome purified from them
Put plainly: In vitro proteasome mediated digestion of 30-mers, mass spectrometry, immunoproteasome JY. To be noted: 30 residue long precursor peptides. The format is biochemical. As to the method:
as §1, §2

In experiment [5] the target is T3, 20S household proteasomes from human tumor cell line (HeLa) (Homo sapiens, UniProt P28072+P28074+Q99436).
T3 construct: 20S household proteasomes were purified from human tumor cell line (HeLa); endogenous in cells; host or cells: HeLa cells; 20S proteasome purified from them
The experiment can be described thus: In vitro proteasome mediated digestion of 30-mers, mass spectrometry, household proteasome HeLa. The format is biochemical. To be noted: 30 residue long precursor peptides. On the procedure:
as §1, §2

Experiment [6] has as its target HLA-A*0201 (Homo sapiens, UniProt P04439, D140Y/D185E/D98H/E176V/E277Q/G131W/G231S/I119V/I121R/I166T/I218V/L300P/L318F/N151K/N90K/P208A/P217A/Q86G/Q94H/R138H/R169H/T345S). Put plainly: Peptide stabilization for HLA-A*0201. Type of experiment: binding.

The results in this text go back to patent publication US8663646B2, “P53 peptide vaccine” (priority 2007, dated 2014).

Molecules are shown by their SMILES.

Take `CC(C)C[C@H](NC(=O)[C@H](CC(C)C)NC(=O)[C@H](CCCCN)NC(=O)[C@H](Cc1c[nH]c2ccccc12)NC(=O)[C@H](CC(C)C)NC(=O)[C@H](CC(=O)O)NC(=O)[C@H](CO)NC(=O)[C@H](Cc1ccccc1)NC(=O)[C@@H](N)[C@@H](C)O)C(=O)O` [p53 18-26]: the “Peptide Binding Affinity” value in experiment [1] was “high”. The “Peptide Binding Stability” value in experiment [2] was “+ (Stable peptides displayed IC50 at 20 °C that deviated <2 times of the IC50 at 4° C.)”. Besides, the “Proteasomal Cleavage of C-terminus, IP (RMA)” value in experiment [3] is on record as “+ (Major cleavage sites are defined as more than >1% of total digested peptide within the first hour)”. For the same compound, the “Proteasomal Cleavage of C-terminus, IP (JY)” value in experiment [4] is recorded as “+ (Major cleavage sites are defined as more than >1% of total digested peptide within the first hour)”. The “Proteasomal Cleavage of C-terminus, HH (HeLa)” value in experiment [5] was “+ (Major cleavage sites are defined as more than >1% of total digested peptide within the first hour)”.

On to `CC(C)C[C@H](NC(=O)[C@H](CCCNC(=N)N)NC(=O)[C@H](Cc1ccccc1)NC(=O)CNC(=O)[C@H](Cc1ccc(O)cc1)NC(=O)[C@H](CO)NC(=O)CNC(=O)[C@H](CCC(N)=O)NC(=O)[C@H](Cc1ccc(O)cc1)NC(=O)[C@@H](N)[C@@H](C)O)C(=O)O` [p53 102-111], for which the “Peptide Binding Affinity” value in experiment [1] was “high”. For the same compound, the “Peptide Binding Stability” value in experiment [2] was “+ (Stable peptides displayed IC50 at 20 °C that deviated <2 times of the IC50 at 4° C.)”. In experiment [3], the “Proteasomal Cleavage of C-terminus, IP (RMA)” value is recorded as “+ (Major cleavage sites are defined as more than >1% of total digested peptide within the first hour)”. Also, the “Proteasomal Cleavage of C-terminus, IP (JY)” value in experiment [4] is listed as “+ (Major cleavage sites are defined as more than >1% of total digested peptide within the first hour)”. Further, in experiment [5], the “Proteasomal Cleavage of C-terminus, HH (HeLa)” value was “+ (Major cleavage sites are defined as more than >1% of total digested peptide within the first hour)”.

Regarding `CC(C)C[C@H](NC(=O)[C@H](CCCNC(=N)N)NC(=O)[C@H](Cc1ccccc1)NC(=O)CNC(=O)[C@H](Cc1ccc(O)cc1)NC(=O)[C@@H](N)CO)C(=O)NCC(=O)N[C@@H](Cc1ccccc1)C(=O)O` [p53 106-113], the “Peptide Binding Affinity” value in experiment [1] is “high”. The “Peptide Binding Stability” value in experiment [2] was “+ (Stable peptides displayed IC50 at 20 °C that deviated <2 times of the IC50 at 4° C.)”. Also, the “Proteasomal Cleavage of C-terminus, IP (RMA)” value in experiment [3] was “+ (Major cleavage sites are defined as more than >1% of total digested peptide within the first hour)”. For the same compound, the “Proteasomal Cleavage of C-terminus, IP (JY)” value in experiment [4] is listed as “+ (Major cleavage sites are defined as more than >1% of total digested peptide within the first hour)”. Further, the “Proteasomal Cleavage of C-terminus, HH (HeLa)” value in experiment [5] is on record as “+ (Major cleavage sites are defined as more than >1% of total digested peptide within the first hour)”.

On to `CC(C)C[C@H](NC(=O)[C@H](Cc1ccccc1)NC(=O)CNC(=O)[C@H](CC(C)C)NC(=O)[C@H](CCCNC(=N)N)NC(=O)[C@H](Cc1ccccc1)NC(=O)CNC(=O)[C@H](Cc1ccc(O)cc1)NC(=O)[C@@H](N)CO)C(=O)O` [p53 106-114], for which, in experiment [1], the “HLA binding Affinity (Table 5)” value is listed as “high” and the “Peptide Binding Affinity” value is recorded as “high”. In experiment [2], the “HLA binding Stability (Table 5)” value is “+/− (Peptides that displayed IC50 at 20 °C of more than twice the IC50 at 4 °C but IC50 < 15 μM were considered to bind with intermediate stability.)” and the “Peptide Binding Stability” value is “+/− (Peptides that displayed IC50 at 20 °C of more than twice the IC50 at 4 °C but IC50 < 15 μM were considered to bind with intermediate stability.)”. Besides, in experiment [3], the “Proteasomal Cleavage of C-terminus, IP (RMA)” value is given as “+ (Major cleavage sites are defined as more than >1% of total digested peptide within the first hour)”. In addition, the “Proteasomal Cleavage of C-terminus, IP (JY)” value in experiment [4] is recorded as “+ (Major cleavage sites are defined as more than >1% of total digested peptide within the first hour)”. Moreover, the “Proteasomal Cleavage of C-terminus, HH (HeLa)” value in experiment [5] is listed as “+ (Major cleavage sites are defined as more than >1% of total digested peptide within the first hour)”.

On to `CC(C)C[C@H](NC(=O)[C@@H](N)Cc1ccccc1)C(=O)N[C@@H](Cc1c[nH]cn1)C(=O)N[C@@H](CO)C(=O)NCC(=O)N[C@H](C(=O)N[C@@H](C)C(=O)N[C@@H](CCCCN)C(=O)N[C@@H](CO)C(=O)N[C@H](C(=O)O)C(C)C)[C@@H](C)O` [p53 113-122], for which, in experiment [6] (HLA type A2, value in hours), the “HLA binding Stability (Table 5)” value turned out to be 6 h. Further, the “Peptide Binding Stability” value in experiment [6] (HLA-A*0201, p53 peptides) amounted to 6 h. In addition, the “Proteasomal Cleavage of C-terminus, IP (RMA)” value in experiment [3] was “+ (Major cleavage sites are defined as more than >1% of total digested peptide within the first hour)”. In addition, in experiment [4], the “Proteasomal Cleavage of C-terminus, IP (JY)” value is on record as “+ (Major cleavage sites are defined as more than >1% of total digested peptide within the first hour)”. In addition, the “Proteasomal Cleavage of C-terminus, HH (HeLa)” value in experiment [5] is reported as “+ (Major cleavage sites are defined as more than >1% of total digested peptide within the first hour)”.

On to `CC(C)C[C@H](NC(=O)[C@H](Cc1ccc(O)cc1)NC(=O)[C@@H](N)CCC(=O)O)C(=O)N[C@@H](CC(=O)O)C(=O)N[C@@H](CC(=O)O)C(=O)N[C@@H](CCCNC(=N)N)C(=O)N[C@@H](CC(N)=O)C(=O)N[C@H](C(=O)N[C@@H](Cc1ccccc1)C(=O)O)[C@@H](C)O` [p53 204-212], for which, in experiment [1], the “HLA binding Affinity (Table 5)” value is given as “high” and the “Peptide Binding Affinity” value is “high”. Moreover, in experiment [2], the “HLA binding Stability (Table 5)” value was “+ (Stable peptides displayed IC50 at 20 °C that deviated <2 times of the IC50 at 4° C.)” and the “Peptide Binding Stability” value was “+ (Stable peptides displayed IC50 at 20 °C that deviated <2 times of the IC50 at 4° C.)”.

In the case of `CSCC[C@H](N)C(=O)N[C@@H](Cc1ccccc1)C(=O)N[C@@H](CCCNC(=N)N)C(=O)N[C@@H](CCC(=O)O)C(=O)N[C@@H](CC(C)C)C(=O)N[C@@H](CC(N)=O)C(=O)N[C@@H](CCC(=O)O)C(=O)N[C@@H](C)C(=O)N[C@@H](CC(C)C)C(=O)O` [p53 340-348, MFRELNEAL], in experiment [1], the “HLA binding Affinity (Table 5)” value is “high” and the “Peptide Binding Affinity” value is “high”. In experiment [2], the “HLA binding Stability (Table 5)” value was “+/− (Peptides that displayed IC50 at 20 °C of more than twice the IC50 at 4 °C but IC50 < 15 μM were considered to bind with intermediate stability.)” and the “Peptide Binding Stability” value was “+/− (Peptides that displayed IC50 at 20 °C of more than twice the IC50 at 4 °C but IC50 < 15 μM were considered to bind with intermediate stability.)”.
